# System: T-Rex 293 cells having increased expression of estrogen receptor alpha protein
# Experiment: Cellular growth inhibition assay, T-Rex 293 cells, (+) doxycycline
# Assay type: cell-based
# Details: T-REx-293, 72 h, Table 7-A; T-Rex 293 cells with doxycycline (increased ERα expression); 72 hours; CellTiter-Glo; read-out: (+) Dox GI50
# How it was run: (§1)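 ERα overexpression was switched on by 3 ng/mL doxycycline in a stably transfected T-Rex 293 clone, while uninduced cells served as the comparison line. Proliferation over 72 h of compound treatment was assessed by ATP luminescence, and GI50 values came from four-parameter curves.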
row,Structure (SMILES),GI50 [µM]
1,Cc1sc2c(c1C)C(c1ccc(NCC3CCCN(CCOc4ccc([C@@H]5c6ccc(O)cc6CC[C@@H]5c5ccccc5)cc4)C3)cc1)=NC(Cc1ncco1)c1nnc(C)n1-2 (stereo partly drawn) [III-53],0.05 to 0.5
2,Cc1sc2c(c1C)C(c1ccc(N3CCC[C@@H](CNCCOc4ccc([C@@H]5c6ccc(O)cc6CC[C@@H]5c5ccccc5)cc4)C3)cc1)=NC(Cc1ncco1)c1nnc(C)n1-2 (stereo partly drawn) [III-54],0.05 to 0.5
3,Cc1sc2c(c1C)C(c1ccc(N3CCCC4(CCN(CCOc5ccc([C@@H]6c7ccc(O)cc7CC[C@@H]6c6ccccc6)cc5)CC4)C3)cc1)=NC(Cc1ncco1)c1nnc(C)n1-2 (stereo partly drawn) [III-55],0.05 to 0.5
4,Cc1sc2c(c1C)C(c1ccc(NCC3CCCCN3CCOc3ccc([C@@H]4c5ccc(O)cc5CC[C@@H]4c4ccccc4)cc3)cc1)=NC(Cc1ncco1)c1nnc(C)n1-2 (stereo partly drawn) [III-56],0.05 to 0.5
5,Cc1sc2c(c1C)C(c1ccc(NCC3CCN(CCOc4ccc([C@@H]5c6ccc(O)cc6CC[C@@H]5c5ccccc5)cc4)C3)cc1)=NC(Cc1ncco1)c1nnc(C)n1-2 (stereo partly drawn) [III-57],0.05 to 0.5
6,Cc1sc2c(c1C)C(c1ccc(N[C@H]3CC[C@H](NCCOc4ccc([C@@H]5c6ccc(O)cc6CC[C@@H]5c5ccccc5)cc4)CC3)cc1)=NC(Cc1ncco1)c1nnc(C)n1-2 (stereo partly drawn) [III-58],< 0.05
7,Cc1sc2c(c1C)C(c1ccc(N[C@H]3C[C@H]4CC[C@@H](C3)N4CCOc3ccc([C@@H]4c5ccc(O)cc5CC[C@@H]4c4ccccc4)cc3)cc1)=NC(Cc1ncco1)c1nnc(C)n1-2 (stereo partly drawn) [III-59],< 0.05
8,Cc1sc2c(c1C)C(c1ccc(N3CCOC4(CCN(CCOc5ccc([C@@H]6c7ccc(O)cc7CC[C@@H]6c6ccccc6)cc5)CC4)C3)cc1)=CC(Cc1ncco1)c1nnc(C)n1-2 (stereo partly drawn) [III-60],0.05 to 0.5

# System: T-Rex 293 cells lacking increased expression of estrogen receptor alpha protein
# Experiment: Cellular growth inhibition assay, T-Rex 293 cells, (−) doxycycline
# Assay type: cell-based
# Details: T-REx-293, 72 h, Table 7-A; T-Rex 293 cells without doxycycline (lacking increased ERα expression); 72 hours; CellTiter-Glo; read-out: (−) Dox GI50
# How it was run: as §1
row,Structure (SMILES),GI50 [µM]
1,Cc1sc2c(c1C)C(c1ccc(NCC3CCCN(CCOc4ccc([C@@H]5c6ccc(O)cc6CC[C@@H]5c5ccccc5)cc4)C3)cc1)=NC(Cc1ncco1)c1nnc(C)n1-2 (stereo partly drawn) [III-53],0.05 to 0.5
2,Cc1sc2c(c1C)C(c1ccc(N3CCC[C@@H](CNCCOc4ccc([C@@H]5c6ccc(O)cc6CC[C@@H]5c5ccccc5)cc4)C3)cc1)=NC(Cc1ncco1)c1nnc(C)n1-2 (stereo partly drawn) [III-54],0.05 to 0.5
3,Cc1sc2c(c1C)C(c1ccc(N3CCCC4(CCN(CCOc5ccc([C@@H]6c7ccc(O)cc7CC[C@@H]6c6ccccc6)cc5)CC4)C3)cc1)=NC(Cc1ncco1)c1nnc(C)n1-2 (stereo partly drawn) [III-55],0.5 to 2.5
4,Cc1sc2c(c1C)C(c1ccc(NCC3CCCCN3CCOc3ccc([C@@H]4c5ccc(O)cc5CC[C@@H]4c4ccccc4)cc3)cc1)=NC(Cc1ncco1)c1nnc(C)n1-2 (stereo partly drawn) [III-56],0.05 to 0.5
5,Cc1sc2c(c1C)C(c1ccc(NCC3CCN(CCOc4ccc([C@@H]5c6ccc(O)cc6CC[C@@H]5c5ccccc5)cc4)C3)cc1)=NC(Cc1ncco1)c1nnc(C)n1-2 (stereo partly drawn) [III-57],0.05 to 0.5
6,Cc1sc2c(c1C)C(c1ccc(N[C@H]3CC[C@H](NCCOc4ccc([C@@H]5c6ccc(O)cc6CC[C@@H]5c5ccccc5)cc4)CC3)cc1)=NC(Cc1ncco1)c1nnc(C)n1-2 (stereo partly drawn) [III-58],0.05 to 0.5
7,Cc1sc2c(c1C)C(c1ccc(N[C@H]3C[C@H]4CC[C@@H](C3)N4CCOc3ccc([C@@H]4c5ccc(O)cc5CC[C@@H]4c4ccccc4)cc3)cc1)=NC(Cc1ncco1)c1nnc(C)n1-2 (stereo partly drawn) [III-59],0.05 to 0.5
8,Cc1sc2c(c1C)C(c1ccc(N3CCOC4(CCN(CCOc5ccc([C@@H]6c7ccc(O)cc7CC[C@@H]6c6ccccc6)cc5)CC4)C3)cc1)=CC(Cc1ncco1)c1nnc(C)n1-2 (stereo partly drawn) [III-60],0.05 to 0.5

# System: MCF7 cells (ATCC #HTB-22)
# Experiment: Cellular growth inhibition assay, MCF7 cells purchased from ATCC
# Assay type: cell-based
# Details: Homo sapiens, MCF7, 144 h, Table 8-A; MCF7 cells purchased from ATCC; six days; CellTiter-Glo; read-out: GI50
# How it was run: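 MCF7 cells in RPMI 1640 with 10% FBS and 0.2 U/ml insulin, seeded at 1,500 cells/well (ATCC) or 225 cells/well (ECACC). Compounds added 24 h later, then 6 days at 37° C. Viability by CellTiter-Glo 2.0 luminescence. GI50 from four-parameter fit.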
row,Structure (SMILES),GI50 [µM]
1,Cc1sc2c(c1C)C(c1ccc(NCC3CCCN(CCOc4ccc([C@@H]5c6ccc(O)cc6CC[C@@H]5c5ccccc5)cc4)C3)cc1)=NC(Cc1ncco1)c1nnc(C)n1-2 (stereo partly drawn) [III-53],0.05 to 0.5
2,Cc1sc2c(c1C)C(c1ccc(N3CCC[C@@H](CNCCOc4ccc([C@@H]5c6ccc(O)cc6CC[C@@H]5c5ccccc5)cc4)C3)cc1)=NC(Cc1ncco1)c1nnc(C)n1-2 (stereo partly drawn) [III-54],0.05 to 0.5
3,Cc1sc2c(c1C)C(c1ccc(N3CCCC4(CCN(CCOc5ccc([C@@H]6c7ccc(O)cc7CC[C@@H]6c6ccccc6)cc5)CC4)C3)cc1)=NC(Cc1ncco1)c1nnc(C)n1-2 (stereo partly drawn) [III-55],0.05 to 0.5
4,Cc1sc2c(c1C)C(c1ccc(NCC3CCCCN3CCOc3ccc([C@@H]4c5ccc(O)cc5CC[C@@H]4c4ccccc4)cc3)cc1)=NC(Cc1ncco1)c1nnc(C)n1-2 (stereo partly drawn) [III-56],0.05 to 0.5
5,Cc1sc2c(c1C)C(c1ccc(NCC3CCN(CCOc4ccc([C@@H]5c6ccc(O)cc6CC[C@@H]5c5ccccc5)cc4)C3)cc1)=NC(Cc1ncco1)c1nnc(C)n1-2 (stereo partly drawn) [III-57],0.05 to 0.5
6,Cc1sc2c(c1C)C(c1ccc(N[C@H]3CC[C@H](NCCOc4ccc([C@@H]5c6ccc(O)cc6CC[C@@H]5c5ccccc5)cc4)CC3)cc1)=NC(Cc1ncco1)c1nnc(C)n1-2 (stereo partly drawn) [III-58],0.05 to 0.5
7,Cc1sc2c(c1C)C(c1ccc(N[C@H]3C[C@H]4CC[C@@H](C3)N4CCOc3ccc([C@@H]4c5ccc(O)cc5CC[C@@H]4c4ccccc4)cc3)cc1)=NC(Cc1ncco1)c1nnc(C)n1-2 (stereo partly drawn) [III-59],0.05 to 0.5
8,Cc1sc2c(c1C)C(c1ccc(N3CCOC4(CCN(CCOc5ccc([C@@H]6c7ccc(O)cc7CC[C@@H]6c6ccccc6)cc5)CC4)C3)cc1)=CC(Cc1ncco1)c1nnc(C)n1-2 (stereo partly drawn) [III-60],0.05 to 0.5
